The data set can be described thus: recombinant UMI read abundance after kanamycin selection (control-corrected) (log10(CPM+1)); higher = more efficient recombination; extreme values may be limits of the assay; sequences stand for … in AGTGCAGAGAAAATCGGCCAGTTTTCTCTGCCTGCAGTCCGCATGCCGTGGGACCCCTTGGGTTCTAACCTGTTGCCTAGATTTATGCAGCGGACTGCCTTTCTCCCAAAGTGATAAACCGG…AGGTTGGTTTCACT; site = the 11-nt donor. Summed up: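 In Escherichia coli, a pool of donor and donor-binding-loop pairs, each with a 12-nt UMI, was tested for the IS621 bridge recombinase. Plating was on IPTG (0.07 mM) plus kanamycin, or without selection, in two replicates. Recombinant UMIs were amplified by PCR across the donor–target junction and sequenced, and counts were reported as log10(CPM+1) after averaging and control-derived scaling.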
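Further: IS621 bridge recombinase in Escherichia coli cells against a fixed T5 target plasmid.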

As for “TCGAATTCATGGACCGGTTTTCCCGGTAATCCGTATTTGCC (site TCCAATTCTGG)”, the “recombinant UMI read abundance (log10)” value turned out to be 0.

For the sequence “TCGAATTCATGGACCGGTTTTCCCGGTAATCCGTATTTGCC (site TCGAATTCTGG)”, the “recombinant UMI read abundance (log10)” value was found to be 0.

As to “TCGAATTCATGGACCGGTTTTCCCGGTAATCCGTATTTGCC (site TCTAATTCTGG)”, the “recombinant UMI read abundance (log10)” value came to 0.193.

As for “TCGACACCATGGACCGGTTTTCCCGGTAATCCGTATTTGGC (site TCGACACCTGC)”, the “recombinant UMI read abundance (log10)” value was found to be 0.

On to “TCGACGGCATGGACCGGTTTTCCCGGTAATCCGTATTTGAG (site TCGACGGCTCT)”, for which the “recombinant UMI read abundance (log10)” value was 0.666.

For “TCGACTCCATGGACCGGTTTTCCCGGTAATCCGTATTTGTC (site TCGACTCCTGA)”, the “recombinant UMI read abundance (log10)” value was 0.

As for “TCGAGTCCATGGACCGGTTTTCCCGGTAATCCGTATTTGAA (site TCGAGTCCTTT)”, the “recombinant UMI read abundance (log10)” value came out at 0.307.

For the sequence “TCGCCTGCATGGACCGGTTTTCCCGGTAATCCGTATTTGGT (site TCGCCTGCTAC)”, the “recombinant UMI read abundance (log10)” value was found to be 0.0077.

Turning to “TCGCTCCCATGGACCGGTTTTCCCGGTAATCCGTATTTGAA (site TCGCTCCCTTT)”, the “recombinant UMI read abundance (log10)” value was determined as 0.0848.

With “TCGGAAACATGGACCGGTTTTCCCGGTAATCCGTATTTGGT (site TCGGAAACTAC)”, the “recombinant UMI read abundance (log10)” value stood at 0.88.

Regarding “TCGGAACCATGGACCGGTTTTCCCGGTAATCCGTATTTGTA (site TCGGAACCTTA)”, the “recombinant UMI read abundance (log10)” value was 0.

On to “TCGGAATCATGGACCGGTTTTCCCGGTAATCCGTATTTGCG (site TAGGAATCTCG)”, for which the “recombinant UMI read abundance (log10)” value stood at 0.861.

Consider “TCGGAATCATGGACCGGTTTTCCCGGTAATCCGTATTTGCG (site TCGGAATCTCG)”, for which the “recombinant UMI read abundance (log10)” value came out at 1.26.

For the sequence “TCGGAATCATGGACCGGTTTTCCCGGTAATCCGTATTTGCG (site TGGGAATCTCG)”, the “recombinant UMI read abundance (log10)” value came to 0.211.

As for “TCGGAATCATGGACCGGTTTTCCCGGTAATCCGTATTTGCG (site TTGGAATCTCG)”, the “recombinant UMI read abundance (log10)” value turned out to be 1.03.

For “TCGGACCCATGGACCGGTTTTCCCGGTAATCCGTATTTGAA (site TCGGACCCTTT)”, the “recombinant UMI read abundance (log10)” value stood at 0.274.

With “TCGGACTCATGGACCGGTTTTCCCGGTAATCCGTATTTGTT (site TCGGACTCTAA)”, the “recombinant UMI read abundance (log10)” value was 3.01.

Consider “TCGGCCCCATGGACCGGTTTTCCCGGTAATCCGTATTTGTT (site TCGGCCCCTAA)”, for which the “recombinant UMI read abundance (log10)” value worked out at 0.0126.

For “TCGGGAACATGGACCGGTTTTCCCGGTAATCCGTATTTGAT (site TCGGGAACTAT)”, the “recombinant UMI read abundance (log10)” value was determined as 1.61.

On to “TCGGTACCATGGACCGGTTTTCCCGGTAATCCGTATTTGCC (site TCGGTACCTGG)”, for which the “recombinant UMI read abundance (log10)” value was determined as 0.

In the case of “TCGGTATCATGGACCGGTTTTCCCGGTAATCCGTATTTGGT (site TCGGTATCTAC)”, the “recombinant UMI read abundance (log10)” value was 1.89.

As to “TCGGTTGCATGGACCGGTTTTCCCGGTAATCCGTATTTGGC (site TCGGTTGCTGC)”, the “recombinant UMI read abundance (log10)” value worked out at 0.849.

Turning to “TCGTTTCCATGGACCGGTTTTCCCGGTAATCCGTATTTGTA (site TCGTTTCCTTA)”, the “recombinant UMI read abundance (log10)” value was 1.36.

For “TCTAACCCATGGACCGGTTTTCCCGGTAATCCGTATTTGCA (site TCTAACCCTTG)”, the “recombinant UMI read abundance (log10)” value worked out at 0.

Consider “TCTACACCATGGACCGGTTTTCCCGGTAATCCGTATTTGAC (site TATACACCTGT)”, for which the “recombinant UMI read abundance (log10)” value was found to be 0.00982.

With “TCTACACCATGGACCGGTTTTCCCGGTAATCCGTATTTGAC (site TCTACACCTGT)”, the “recombinant UMI read abundance (log10)” value was 0.

Regarding “TCTACACCATGGACCGGTTTTCCCGGTAATCCGTATTTGAC (site TGTACACCTGT)”, the “recombinant UMI read abundance (log10)” value is 0.

As to “TCTACACCATGGACCGGTTTTCCCGGTAATCCGTATTTGAC (site TTTACACCTGT)”, the “recombinant UMI read abundance (log10)” value was 0.

For the sequence “TCTACGTCATGGACCGGTTTTCCCGGTAATCCGTATTTGTC (site TCTACGTCTGA)”, the “recombinant UMI read abundance (log10)” value came out at 0.

As to “TCTACTGCATGGACCGGTTTTCCCGGTAATCCGTATTTGCC (site ACTACTGCTGG)”, the “recombinant UMI read abundance (log10)” value came out at 0.

As for “TCTACTGCATGGACCGGTTTTCCCGGTAATCCGTATTTGCC (site CCTACTGCTGG)”, the “recombinant UMI read abundance (log10)” value came out at 0.

With “TCTACTGCATGGACCGGTTTTCCCGGTAATCCGTATTTGCC (site GCTACTGCTGG)”, the “recombinant UMI read abundance (log10)” value is 0.

As for “TCTACTGCATGGACCGGTTTTCCCGGTAATCCGTATTTGCC (site TCTACTGCTGG)”, the “recombinant UMI read abundance (log10)” value was found to be 0.

For the sequence “TCTAGATCATGGACCGGTTTTCCCGGTAATCCGTATTTGCA (site TCTAGATCTTG)”, the “recombinant UMI read abundance (log10)” value was 0.

Regarding “TCTAGGTCATGGACCGGTTTTCCCGGTAATCCGTATTTGTT (site TCTAGGTCTAA)”, the “recombinant UMI read abundance (log10)” value stood at 0.

As for “TCTAGTTCATGGACCGGTTTTCCCGGTAATCCGTATTTGTG (site TCTAGTTCTCA)”, the “recombinant UMI read abundance (log10)” value came out at 0.0111.

“TCTATAACATGGACCGGTTTTCCCGGTAATCCGTATTTGCT (site TCTATAACTAG)”: the “recombinant UMI read abundance (log10)” value worked out at 0.

Turning to “TCTGAGCCATGGACCGGTTTTCCCGGTAATCCGTATTTGAT (site TCTGAGCCTAT)”, the “recombinant UMI read abundance (log10)” value amounted to 0.00231.

As to “TCTGAGCCATGGACCGGTTTTCCCGGTAATCCGTATTTGTT (site TCTGAGCCTAA)”, the “recombinant UMI read abundance (log10)” value worked out at 0.0283.

In the case of “TCTGCGGCATGGACCGGTTTTCCCGGTAATCCGTATTTGCT (site TATGCGGCTAG)”, the “recombinant UMI read abundance (log10)” value was determined as 0.0269.

With “TCTGCGGCATGGACCGGTTTTCCCGGTAATCCGTATTTGCT (site TCTGCGGCTAG)”, the “recombinant UMI read abundance (log10)” value was determined as 0.246.

With “TCTGCGGCATGGACCGGTTTTCCCGGTAATCCGTATTTGCT (site TGTGCGGCTAG)”, the “recombinant UMI read abundance (log10)” value amounted to 0.0168.

As for “TCTGCGGCATGGACCGGTTTTCCCGGTAATCCGTATTTGCT (site TTTGCGGCTAG)”, the “recombinant UMI read abundance (log10)” value was determined as 0.0104.

Regarding “TCTGCTACATGGACCGGTTTTCCCGGTAATCCGTATTTGGT (site TCTGCTACTAC)”, the “recombinant UMI read abundance (log10)” value turned out to be 0.0161.

As for “TCTGTGGCATGGACCGGTTTTCCCGGTAATCCGTATTTGCC (site TCTGTGGCTGG)”, the “recombinant UMI read abundance (log10)” value came out at 0.

In the case of “TCTTAACCATGGACCGGTTTTCCCGGTAATCCGTATTTGTG (site TCTTAACCTCA)”, the “recombinant UMI read abundance (log10)” value is 0.0128.

With “TCTTACCCATGGACCGGTTTTCCCGGTAATCCGTATTTGCA (site TCTTACCCTTG)”, the “recombinant UMI read abundance (log10)” value came to 0.

With “TCTTACGCATGGACCGGTTTTCCCGGTAATCCGTATTTGGC (site TCTTACGCTGC)”, the “recombinant UMI read abundance (log10)” value was determined as 0.

For the sequence “TCTTCAACATGGACCGGTTTTCCCGGTAATCCGTATTTGTG (site TCTTCAACTCA)”, the “recombinant UMI read abundance (log10)” value came out at 0.0171.

Take “TCTTCTACATGGACCGGTTTTCCCGGTAATCCGTATTTGAC (site TCTTCTACTGT)”: the “recombinant UMI read abundance (log10)” value was found to be 0.

For the sequence “TCTTCTGCATGGACCGGTTTTCCCGGTAATCCGTATTTGAT (site TCTTCTGCTAT)”, the “recombinant UMI read abundance (log10)” value was 0.

As for “TCTTTACCATGGACCGGTTTTCCCGGTAATCCGTATTTGGG (site TCTTTACCTCC)”, the “recombinant UMI read abundance (log10)” value was 0.0231.

As to “TCTTTACCATGGACCGGTTTTCCCGGTAATCCGTATTTGTA (site TCTTTACCTTA)”, the “recombinant UMI read abundance (log10)” value was determined as 0.00582.

With “TCTTTGGCATGGACCGGTTTTCCCGGTAATCCGTATTTGTG (site TATTTGGCTCA)”, the “recombinant UMI read abundance (log10)” value was 0.0246.

Turning to “TCTTTGGCATGGACCGGTTTTCCCGGTAATCCGTATTTGTG (site TCTTTGGCTCA)”, the “recombinant UMI read abundance (log10)” value amounted to 0.0151.

Regarding “TCTTTGGCATGGACCGGTTTTCCCGGTAATCCGTATTTGTG (site TGTTTGGCTCA)”, the “recombinant UMI read abundance (log10)” value turned out to be 0.0149.

As to “TCTTTGGCATGGACCGGTTTTCCCGGTAATCCGTATTTGTG (site TTTTTGGCTCA)”, the “recombinant UMI read abundance (log10)” value amounted to 0.0253.

Turning to “TGAAAATCATGGACCGGTTTTCCCGGTAATCCGTATTTGAT (site TGAAAATCTAT)”, the “recombinant UMI read abundance (log10)” value was 0.

Consider “TGAAAGACATGGACCGGTTTTCCCGGTAATCCGTATTTGCA (site AGGAAGACTTG)”, for which the “recombinant UMI read abundance (log10)” value is 2.91.

Regarding “TGAAAGACATGGACCGGTTTTCCCGGTAATCCGTATTTGCA (site TGAAAGACTTG)”, the “recombinant UMI read abundance (log10)” value turned out to be 2.45.

As to “TGAACACCATGGACCGGTTTTCCCGGTAATCCGTATTTGAC (site TGAACACCTGT)”, the “recombinant UMI read abundance (log10)” value was found to be 0.

With “TGAACACCATGGACCGGTTTTCCCGGTAATCCGTATTTGAC (site TGCACACCTGT)”, the “recombinant UMI read abundance (log10)” value is 0.

For the sequence “TGAACACCATGGACCGGTTTTCCCGGTAATCCGTATTTGAC (site TGGACACCTGT)”, the “recombinant UMI read abundance (log10)” value turned out to be 0.

For “TGAACACCATGGACCGGTTTTCCCGGTAATCCGTATTTGAC (site TGTACACCTGT)”, the “recombinant UMI read abundance (log10)” value was determined as 0.

In the case of “TGAAGAGCATGGACCGGTTTTCCCGGTAATCCGTATTTGCA (site TGAAGAGCTTG)”, the “recombinant UMI read abundance (log10)” value is 2.54.

“TGAAGCGCATGGACCGGTTTTCCCGGTAATCCGTATTTGCT (site TGAAGCGCTAG)”: the “recombinant UMI read abundance (log10)” value was determined as 2.01.

Turning to “TGAATACCATGGACCGGTTTTCCCGGTAATCCGTATTTGTG (site TGAATACCTCA)”, the “recombinant UMI read abundance (log10)” value is 0.0076.

For the sequence “TGACATTCATGGACCGGTTTTCCCGGTAATCCGTATTTGCT (site TGACATTCTAG)”, the “recombinant UMI read abundance (log10)” value was 1.97.

These data come from the supplement of paper PMC11208160.
